From the supplement of paper PMC10307832

Assays:
Assay in all cases: relative viability (nuclei count vs DMSO), 5 days (fraction); higher = more cells survive
[1] = compound: CC1=C(C(=NN1)C)CC2=C(C3=C(S2)N(C(=O)N(C3=O)C)CC(C)C)C(=O)N4C[C@@H](CO4)O + CCNC(=O)c1noc(-c2cc(C(C)C)c(O)cc2O)c1-c1ccc(CN2CCOCC2)cc1 [Luminespib] (partner 0.01 µM)
Procedure, shortened: (§1)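 Relative viability is defined as nuclei in treated wells over nuclei in vehicle wells. Duplicate plates were run and medians reported. Lung cancer cell lines in 1536-well plates were dosed by pin tool one day after seeding, with one drug or with a fixed anchor-drug dose plus five library-drug doses (not always all listed) in √10 steps, and nuclei were counted after 5 days.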

IDH-C35 + Linsitinib = compound: Cc1ccccc1C(C(=O)NC1CCCCC1)N(C(=O)Cn1ccnc1C)c1cccc(F)c1 [IDH-C35] + C[C@]1(O)C[C@@H](c2nc(-c3ccc4ccc(-c5ccccc5)nc4c3)c3c(N)nccn32)C1 [Linsitinib] (partner 1 µM)
Procedure, shortened: as §1

IDH-C35 + Decitabine = compound: Cc1ccccc1C(C(=O)NC1CCCCC1)N(C(=O)Cn1ccnc1C)c1cccc(F)c1 [IDH-C35] + Nc1ncn([C@H]2C[C@H](O)[C@@H](CO)O2)c(=O)n1 [Decitabine] (partner 2 µM)
Procedure, shortened: as §1

IDH-C35 + Trametinib = compound: Cc1ccccc1C(C(=O)NC1CCCCC1)N(C(=O)Cn1ccnc1C)c1cccc(F)c1 [IDH-C35] + CC(=O)Nc1cccc(-n2c(=O)n(C3CC3)c(=O)c3c(Nc4ccc(I)cc4F)n(C)c(=O)c(C)c32)c1 [Trametinib] (partner 0.02 µM)
Procedure, shortened: as §1

Row | Cell Line | relative viability ([1]; first compound 0.0025 µM) | relative viability ([1]; first compound 0.007906 µM) | relative viability ([1]; first compound 0.025 µM) | relative viability ([1]; first compound 0.07906 µM) | relative viability ([1]; first compound 0.25 µM) | relative viability (IDH-C35 + Linsitinib; first compound 0.08 µM) | relative viability (IDH-C35 + Linsitinib; first compound 0.253 µM) | relative viability (IDH-C35 + Linsitinib; first compound 0.8 µM) | relative viability (IDH-C35 + Linsitinib; first compound 2.53 µM) | relative viability (IDH-C35 + Linsitinib; first compound 8 µM) | relative viability (IDH-C35 + Decitabine; first compound 0.08 µM) | relative viability (IDH-C35 + Decitabine; first compound 0.253 µM) | relative viability (IDH-C35 + Decitabine; first compound 0.8 µM) | relative viability (IDH-C35 + Decitabine; first compound 2.53 µM) | relative viability (IDH-C35 + Decitabine; first compound 8 µM) | relative viability (IDH-C35 + Trametinib; first compound 0.08 µM) | relative viability (IDH-C35 + Trametinib; first compound 0.253 µM) | relative viability (IDH-C35 + Trametinib; first compound 0.8 µM) | relative viability (IDH-C35 + Trametinib; first compound 2.53 µM) | relative viability (IDH-C35 + Trametinib; first compound 8 µM)
1 | 201T | 1.04 | 1.1 | 1.05 | 1.04 | 1.05 | 1.03 | 1.06 | 1.01 | 0.992 | 0.955 | 0.871 | 0.839 | 0.86 | 0.839 | 0.836 | 0.727 | 0.7 | 0.718 | 0.701 | 0.676
2 | A549 | – | – | – | – | – | 0.624 | 0.55 | 0.504 | 0.502 | 0.585 | 0.313 | 0.263 | 0.312 | 0.195 | 0.223 | – | – | – | – | –
3 | A-427 | 0.949 | 1.19 | 0.921 | 1.03 | 0.957 | 1.13 | 1.17 | 1.07 | 1.1 | 1.18 | 0.622 | 0.57 | 0.598 | 0.526 | 0.58 | 0.791 | 0.784 | 0.77 | 0.722 | 0.705
4 | ABC-1 | – | 0.606 | – | 0.349 | 0.531 | 0.898 | 0.856 | 0.913 | 0.767 | 0.746 | 0.838 | 1.12 | 0.975 | 0.98 | 0.95 | – | – | – | – | –
5 | BEN | 0.235 | 0.383 | 0.242 | 0.335 | 0.325 | 0.831 | 0.899 | 0.813 | 0.906 | 0.99 | 0.683 | 0.707 | 0.681 | 0.707 | 0.75 | 0.954 | 1.04 | 1.02 | 1.16 | 1.16
6 | CAL-12T | 0.393 | 0.895 | 0.315 | 0.303 | 0.404 | 0.841 | 0.826 | 0.779 | 0.733 | 0.826 | – | – | – | – | – | 0.389 | 0.434 | 0.371 | 0.36 | 0.354
7 | COR-L23 | 0.756 | 0.744 | 0.666 | 0.549 | 0.765 | 0.828 | 0.896 | 0.913 | 0.889 | 0.886 | 0.426 | 0.471 | 0.421 | 0.478 | 0.459 | 0.599 | 0.639 | 0.591 | 0.565 | 0.54
8 | COR-L 105 | 0.739 | 0.807 | 0.533 | 0.638 | 0.617 | 1.01 | 1.24 | 0.854 | 1.01 | 0.836 | 0.559 | 0.678 | 0.724 | 0.677 | 0.619 | 0.444 | 0.451 | 0.446 | 0.485 | 0.39
9 | Calu-6 | – | – | – | – | – | 0.993 | 0.928 | 0.961 | 0.932 | 0.88 | – | – | – | – | – | – | – | – | – | –
10 | ChaGo-K-1 | 0.671 | 0.597 | 0.583 | 0.677 | 0.546 | – | – | – | – | – | 0.507 | 0.531 | 0.535 | 0.533 | 0.531 | 0.897 | 0.878 | 0.944 | 0.844 | 0.899
11 | EBC-1 | – | – | – | – | – | 1.04 | 0.949 | 1.02 | 0.867 | 0.852 | – | – | – | – | – | – | – | – | – | –
12 | EKVX | 0.948 | 0.955 | 0.852 | 0.764 | 0.928 | 1.05 | 1.09 | 0.957 | 0.988 | 1.01 | 0.343 | 0.399 | 0.4 | 0.321 | 0.339 | 0.398 | 0.279 | 0.37 | 0.353 | 0.277
13 | EMC-BAC-2 | 1.17 | 1.23 | 1.2 | 1.32 | 1.29 | 0.797 | 0.799 | 0.798 | 0.777 | 0.812 | 1.03 | 0.988 | 1 | 0.925 | 0.993 | 0.888 | 0.816 | 0.837 | 0.823 | 0.833
14 | EPLC-272H | 0.738 | 0.197 | 0.235 | 0.498 | 0.417 | 1.12 | 1.31 | 1.08 | – | 1.25 | 0.357 | 0.392 | 0.344 | – | 0.384 | 0.259 | 0.308 | 0.324 | – | 0.257
15 | H3255 | 0.953 | 1.04 | 0.861 | 0.944 | 0.887 | 0.981 | 0.915 | 1.01 | 0.877 | 0.881 | 0.61 | 0.607 | 0.606 | 0.63 | 0.596 | 0.699 | 0.692 | 0.536 | 0.548 | 0.59
16 | HARA | 0.847 | 1.12 | 0.726 | 0.543 | 0.933 | 0.993 | 0.933 | 1.04 | 0.988 | 0.907 | 0.434 | 0.438 | 0.625 | 0.504 | 0.505 | 0.562 | 0.649 | 0.601 | 0.56 | 0.76
17 | HCC-15 | 0.378 | 0.518 | 0.236 | 0.43 | 0.337 | 0.866 | 0.828 | 0.788 | 0.835 | 0.764 | 0.61 | 0.546 | 0.689 | 0.579 | 0.635 | 0.37 | 0.395 | 0.428 | – | 0.371
18 | HCC-44 | 0.97 | 1.11 | 1.03 | 0.958 | 1.38 | 0.656 | 0.628 | 0.647 | 0.876 | 0.69 | 0.997 | 0.914 | 0.91 | 0.939 | 0.901 | 1.01 | 1.04 | 1.09 | 1.14 | 1.04
19 | HCC-78 | – | – | – | – | – | 0.54 | 0.495 | 0.497 | 0.382 | 0.453 | 0.701 | 0.579 | 0.703 | 0.605 | 0.707 | 0.757 | 0.869 | 0.777 | 0.713 | 0.761
